Data published in ChEMBL document CHEMBL5241122, “A concise review on marine bromopyrrole alkaloids as anticancer agents” (Bioorg Med Chem Lett, 2023).
Where a SMILES comes first, the peptide text is derived from it. [ ]: non-standard residue; d: D form. The star is where a group is joined. X1 = Cn1c(Br)c(Br)c(Br)c1C(=O)*; NMeL = CN[C@@H](CC(C)C)C(=O)O

Columns and labels:
[1] = molecular target: Epidermal growth factor receptor (Homo sapiens, UniProt P00533); experiment: Inhibition of EGFR (unknown origin)
[2] = molecular target: Receptor tyrosine-protein kinase erbB-2 (Homo sapiens, UniProt P04626); experiment: Inhibition of c-ErbB-2 (unknown origin)
[3] = tested on: WRL68; experiment: Cytotoxicity against human WRL68 cells by MTT assay; assay type: functional, cell-based
[4] = tested on: Caco-2; experiment: Cytotoxicity against human Caco-2 cells by MTT assay; assay type: functional, cell-based
[5] = tested on: MCF7; experiment: Cytotoxicity against human MCF7 cells by MTT assay; assay type: functional, cell-based
[6] = molecular target: E3 ubiquitin-protein ligase CBL-B (Homo sapiens, UniProt Q13191); experiment: Inhibition of Cbl-b (unknown origin) assessed as inhibition of Cbl-b dependent ubiquitination in presence of ATP measured after 13 hrs by fluorescence microplate reader assay
[7] = tested on: K562; experiment: Cytotoxicity against human K562 cells; assay type: functional, cell-based
[8] = tested on: KB; experiment: Cytotoxicity against human KB cells; assay type: functional, cell-based
[9] = tested on: LoVo; experiment: Inhibition of cell growth in human LoVo cells by SRB assay; assay type: functional, cell-based
[10] = Inhibition of recombinant human MAPK expressed in Escherichia coli assessed as reduction in MEK-1 phosphorylation incubated for 60 mins by ELISA assay
[11] = tested on: MONO-MAC-6; experiment: Cytotoxicity against human MONO-MAC-6 cells incubated for 48 hrs by [3H]-thymidine incorporation based liquid scintillation counter analysis; assay type: functional, cell-based
[12] = tested on: Jurkat; experiment: Antiinflammatory activity in PMA induced human Jurkat cells assessed as inhibition of IL-2 production by EIA assay; assay type: functional, cell-based
[13] = tested on: HeLa; experiment: Cytotoxicity against human HeLa cells incubated for 72 hrs by MTT assay; assay type: functional, cell-based
[14] = tested on: HepG2; experiment: Cytotoxicity against human HepG2 cells incubated for 72 hrs by MTT assay; assay type: functional, cell-based; details: HepG2, 72 h
[15] = tested on: Bel-7402; experiment: Cytotoxicity against human Bel-7402 cells incubated for 72 hrs by MTT assay; assay type: functional, cell-based; details: Bel-7402, 72 h
[16] = tested on: CNE; experiment: Cytotoxicity against human CNE cells incubated for 72 hrs by MTT assay; assay type: functional, cell-based
[17] = tested on: LoVo; experiment: Cytotoxicity against human LoVo cells incubated for 72 hrs by MTT assay; assay type: functional, cell-based
[18] = tested on: MCF7; experiment: Cytotoxicity against human MCF7 cells incubated for 72 hrs by MTT assay; assay type: functional, cell-based; details: MCF7, 72 h
[19] = tested on: THP-1; experiment: Antiinflammatory activity in LPS induced human THP-1 cells assessed as inhibition of TNF-alpha production by EIA assay; assay type: functional, cell-based
[20] = tested on: P388; experiment: Cytotoxicity against mouse P388 cells; assay type: functional, cell-based; details: for EC50: read-out: ED50 (the source's name)
[21] = tested on: L1210; experiment: Cytotoxicity against mouse L1210 cells; assay type: functional, cell-based
[22] = tested on: HCT-116; experiment: Antiproliferative activity against human HCT-116 cells incubated for 72 hrs by SRB assay; assay type: functional, cell-based; details: HCT-116, 72 h
[23] = tested on: SK-HEP1; experiment: Antiproliferative activity against human SK-HEP1 cells incubated for 72 hrs by SRB assay; assay type: functional, cell-based; details: SK-HEP1, 72 h
[24] = tested on: K562; experiment: Antiproliferative activity against human K562 cells incubated for 72 hrs by SRB assay; assay type: functional, cell-based; details: K562, 72 h
[25] = tested on: A549; experiment: Antiproliferative activity against human A549 cells incubated for 72 hrs by SRB assay; assay type: functional, cell-based; details: A549, 72 h
[26] = tested on: MDA-MB-231; experiment: Antiproliferative activity against human MDA-MB-231 cells incubated for 72 hrs by SRB assay; assay type: functional, cell-based; details: MDA-MB-231, 72 h
[27] = tested on: SNU-638; experiment: Antiproliferative activity against human SNU-638 cells incubated for 72 hrs by SRB assay; assay type: functional, cell-based; details: SNU-638, 72 h
[28] = tested on: A549; experiment: Cytotoxicity against human A549 cells assessed as cell growth inhibition by cell based assay; assay type: functional
[29] = tested on: PSN1; experiment: Cytotoxicity against human PSN1 cells assessed as cell growth inhibition by cell based assay; assay type: functional
[30] = tested on: MDA-MB-231; experiment: Cytotoxicity against human MDA-MB-231 cells assessed as cell growth inhibition by cell based assay; assay type: functional
[31] = tested on: HT-29; experiment: Cytotoxicity against human HT-29 cells assessed as cell growth inhibition by cell based assay; assay type: functional
[32] = Displacement of [125I]-somatostatin from somatostatin (unknown origin) incubated for 60 mins by gamma scintillation counter analysis; design: species or system Homo sapiens
[33] = molecular target: VIP peptides (Homo sapiens, UniProt P01282); experiment: Displacement of [125I]-VIP from Vasoactive intestinal peptide (unknown origin) incubated for 120 mins by gamma scintillation counter analysis
VIP peptides, sequence (P01282 125-152 limits assumed): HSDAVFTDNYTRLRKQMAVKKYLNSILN

E3 ubiquitin-protein ligase CBL-B, sequence (Q13191 whole entry): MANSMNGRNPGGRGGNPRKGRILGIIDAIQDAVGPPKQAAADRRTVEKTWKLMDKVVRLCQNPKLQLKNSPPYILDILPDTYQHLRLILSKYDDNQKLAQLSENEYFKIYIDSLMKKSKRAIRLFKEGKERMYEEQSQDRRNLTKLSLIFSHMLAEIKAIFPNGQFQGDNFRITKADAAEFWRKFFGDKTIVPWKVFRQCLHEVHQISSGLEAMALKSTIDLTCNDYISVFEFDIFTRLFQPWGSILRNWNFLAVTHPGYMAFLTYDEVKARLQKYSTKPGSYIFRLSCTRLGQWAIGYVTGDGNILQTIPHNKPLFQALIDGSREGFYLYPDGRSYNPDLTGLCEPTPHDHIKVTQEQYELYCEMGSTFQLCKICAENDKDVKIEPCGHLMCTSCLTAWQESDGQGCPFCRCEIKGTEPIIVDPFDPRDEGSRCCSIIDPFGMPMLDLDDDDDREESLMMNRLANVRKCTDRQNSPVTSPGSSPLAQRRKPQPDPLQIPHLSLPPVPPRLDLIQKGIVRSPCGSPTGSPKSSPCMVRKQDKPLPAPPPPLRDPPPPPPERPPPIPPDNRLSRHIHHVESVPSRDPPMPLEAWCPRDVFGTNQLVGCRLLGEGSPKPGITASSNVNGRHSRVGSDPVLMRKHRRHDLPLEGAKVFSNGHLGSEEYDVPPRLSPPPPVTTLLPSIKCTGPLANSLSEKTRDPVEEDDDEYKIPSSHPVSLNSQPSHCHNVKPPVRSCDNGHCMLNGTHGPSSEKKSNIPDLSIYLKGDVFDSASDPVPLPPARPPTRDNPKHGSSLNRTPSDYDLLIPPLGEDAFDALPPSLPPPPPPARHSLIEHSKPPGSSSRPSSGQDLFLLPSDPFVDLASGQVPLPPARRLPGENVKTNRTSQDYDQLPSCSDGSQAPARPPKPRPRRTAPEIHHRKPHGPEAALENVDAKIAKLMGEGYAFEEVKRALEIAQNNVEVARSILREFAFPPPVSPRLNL
Epidermal growth factor receptor, sequence (P00533 whole entry): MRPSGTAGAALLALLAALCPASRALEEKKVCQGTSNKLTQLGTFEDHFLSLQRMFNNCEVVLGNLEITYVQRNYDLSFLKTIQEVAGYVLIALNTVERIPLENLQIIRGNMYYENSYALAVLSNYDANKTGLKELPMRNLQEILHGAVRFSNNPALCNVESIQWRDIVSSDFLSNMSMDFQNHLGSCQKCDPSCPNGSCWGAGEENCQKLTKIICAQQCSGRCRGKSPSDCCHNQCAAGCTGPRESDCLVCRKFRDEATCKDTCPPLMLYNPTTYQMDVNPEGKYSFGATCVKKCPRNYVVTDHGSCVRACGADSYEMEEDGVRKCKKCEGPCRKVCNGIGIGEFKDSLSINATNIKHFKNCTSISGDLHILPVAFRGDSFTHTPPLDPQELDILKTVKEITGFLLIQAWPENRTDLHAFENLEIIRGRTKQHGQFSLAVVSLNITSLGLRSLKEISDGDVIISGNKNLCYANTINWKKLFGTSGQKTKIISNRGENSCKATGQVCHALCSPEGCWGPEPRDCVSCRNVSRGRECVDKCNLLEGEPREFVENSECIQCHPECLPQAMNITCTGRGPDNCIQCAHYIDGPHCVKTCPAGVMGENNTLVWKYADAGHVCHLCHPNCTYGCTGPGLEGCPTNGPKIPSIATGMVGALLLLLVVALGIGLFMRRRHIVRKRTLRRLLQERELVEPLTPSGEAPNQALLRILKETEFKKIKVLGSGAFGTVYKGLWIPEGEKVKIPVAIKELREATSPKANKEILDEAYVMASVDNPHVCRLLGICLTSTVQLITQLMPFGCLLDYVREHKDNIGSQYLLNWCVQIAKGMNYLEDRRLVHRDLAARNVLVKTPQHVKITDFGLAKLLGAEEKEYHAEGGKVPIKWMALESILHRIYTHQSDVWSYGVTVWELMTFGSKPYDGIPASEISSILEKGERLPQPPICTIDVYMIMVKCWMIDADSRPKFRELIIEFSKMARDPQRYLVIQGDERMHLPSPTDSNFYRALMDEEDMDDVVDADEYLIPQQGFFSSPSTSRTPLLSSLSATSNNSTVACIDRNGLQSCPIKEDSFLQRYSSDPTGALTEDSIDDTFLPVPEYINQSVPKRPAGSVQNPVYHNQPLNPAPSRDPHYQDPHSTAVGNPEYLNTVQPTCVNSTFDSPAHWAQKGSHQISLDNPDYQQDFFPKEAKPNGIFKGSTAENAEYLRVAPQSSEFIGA
Receptor tyrosine-protein kinase erbB-2, sequence (P04626 whole entry): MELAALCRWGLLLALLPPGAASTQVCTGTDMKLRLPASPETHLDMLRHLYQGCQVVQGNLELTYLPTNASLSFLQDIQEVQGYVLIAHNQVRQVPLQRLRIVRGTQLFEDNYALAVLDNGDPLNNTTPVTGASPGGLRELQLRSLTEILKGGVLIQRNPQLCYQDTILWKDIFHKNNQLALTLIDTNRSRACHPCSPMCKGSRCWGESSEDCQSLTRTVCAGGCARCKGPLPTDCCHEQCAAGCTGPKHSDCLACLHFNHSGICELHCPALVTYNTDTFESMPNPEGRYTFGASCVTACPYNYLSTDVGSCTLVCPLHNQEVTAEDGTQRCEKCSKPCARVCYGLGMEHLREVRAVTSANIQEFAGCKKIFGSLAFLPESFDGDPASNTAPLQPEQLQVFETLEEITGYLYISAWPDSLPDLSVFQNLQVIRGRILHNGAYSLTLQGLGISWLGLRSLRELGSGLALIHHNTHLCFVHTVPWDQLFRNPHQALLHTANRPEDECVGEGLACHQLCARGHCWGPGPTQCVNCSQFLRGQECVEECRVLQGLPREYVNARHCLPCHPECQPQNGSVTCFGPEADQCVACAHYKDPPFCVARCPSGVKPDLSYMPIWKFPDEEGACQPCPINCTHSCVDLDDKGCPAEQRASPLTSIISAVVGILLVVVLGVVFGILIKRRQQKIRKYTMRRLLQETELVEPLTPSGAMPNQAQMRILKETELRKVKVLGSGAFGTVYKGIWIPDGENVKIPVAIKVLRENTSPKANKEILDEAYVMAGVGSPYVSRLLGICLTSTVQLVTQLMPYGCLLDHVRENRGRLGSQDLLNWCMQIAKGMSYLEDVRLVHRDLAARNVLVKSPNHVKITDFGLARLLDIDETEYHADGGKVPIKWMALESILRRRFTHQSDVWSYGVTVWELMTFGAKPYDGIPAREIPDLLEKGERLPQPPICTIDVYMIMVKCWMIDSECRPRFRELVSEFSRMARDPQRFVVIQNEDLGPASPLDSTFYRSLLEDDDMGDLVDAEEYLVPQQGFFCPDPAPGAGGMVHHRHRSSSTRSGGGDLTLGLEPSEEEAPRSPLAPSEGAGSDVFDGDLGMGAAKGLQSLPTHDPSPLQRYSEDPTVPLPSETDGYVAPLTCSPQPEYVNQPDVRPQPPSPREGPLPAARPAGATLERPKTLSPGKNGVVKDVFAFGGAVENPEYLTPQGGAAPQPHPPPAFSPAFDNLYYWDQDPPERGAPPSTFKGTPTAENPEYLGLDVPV

N=C1N=C(NCCS(=O)(=O)O)/C(=C/C(O)CNC(=O)c2cc(Br)c(Br)[nH]2)N1 (mixture of isomers) [TAUROACIDIN A]
IC50 [1]: 44.6 µM | IC50 [2]: 37.9 µM

Cn1c(C(=O)NNC(=S)Nc2ccccc2F)cc(Br)c1Br
IC50 [3]: 0.01 µM | IC50 [4]: 0.01 µM | IC50 [5]: 0.01 µM

Cn1cc(Br)cc1C(=O)NC[C@H]1CC2N=C(N)NC2[C@@H](c2c[nH]c(N)n2)[C@@H]1CNC(=O)c1cc(Br)c[nH]1 (stereo partly drawn)
IC50 [6]: 18 µM

N=C1N=C(NCCS(=O)(=O)O)C(O)(/C=C/CNC(=O)c2cc(Br)c(Br)[nH]2)N1 (stereo not drawn)
IC50 [7]: 20.7 µM | IC50 [8]: 20.7 µM

NC1=NC(=O)/C(=C2\CCNC(=O)c3[nH]c(Br)cc32)N1 [HYMENIALDISINE]
IC50 [9]: 0.006 µM | IC50 [10]: 0.006 µM | IC50 [11]: 0.61 µM | IC50 [12]: 4 µM

NC1NC(/C=C/CNC(=O)c2cc(Br)c(Br)[nH]2)=C([n+]2cccc(O)c2)N1 (stereo not drawn)
IC50 [7]: 20.7 µM | IC50 [8]: 20.7 µM

O=C(NNC(=S)Nc1ccc([N+](=O)[O-])cc1)c1cc(Br)c(Br)[nH]1
IC50 [3]: 0.03 µM | IC50 [4]: 0.03 µM | IC50 [5]: 0.03 µM

COC(=O)C(NCC(=O)c1cc(Br)c(Br)[nH]1)C(C)C (stereo not drawn)
IC50 [13]: 13.8 µM | IC50 [14]: 15.3 µM | IC50 [15]: 27.8 µM | IC50 [16]: 43.5 µM | IC50 [17]: 0.96 µM | IC50 [18]: 28.6 µM

NC1=N/C(=C2/CCNC(=O)c3[nH]ccc32)C(=O)N1 [DEBROMOHYMENIALDISINE]
IC50 [11]: 9.67 µM

Cc1ccccc1NC(=S)NNC(=O)c1cc(Br)c(Br)n1C
IC50 [3]: 0.07 µM | IC50 [4]: 0.07 µM | IC50 [5]: 0.07 µM

S=C(S)N1CCCC1 [PYRROLIDINE DITHIOCARBAMATE]
IC50 [19]: 6.11 µM | IC50 [12]: 5.12 µM

COCNC(=O)c1cc(Br)c(Br)[nH]1
EC50 [20]: 69.4 µM

CO[C@]12C[C@@H](CNC(=O)c3cc(Br)c[nH]3)O[C@H]1NC(=O)N2
IC50 [21]: 19.6 µM

NC1=NC(=O)C([C@@H]2[C@@H](CNC(=O)c3cc(Br)c[nH]3)[C@H](CNC(=O)c3cc(Br)c[nH]3)[C@H]2C2NC(N)=NC2=O)N1 (stereo partly drawn)
IC50 [22]: 9.93 µM | IC50 [23]: 35.2 µM | IC50 [24]: 12.9 µM | IC50 [25]: 31.3 µM | IC50 [26]: 32.8 µM | IC50 [27]: 7.92 µM

COC(=O)CC1CNC(=O)c2cc(Br)c(Br)n21 (racemic)
EC50 [20]: 82 µM

NC1NC2c3c([nH]c(Br)c3Br)C(=O)N3C[C@H](Cl)[C@H](O)C23N1 (stereo partly drawn)
IC50 [21]: 5.68 µM

CC[C@H](C)[C@H](NC(=O)c1c(Br)c(Br)c(Br)n1C)C(=O)N(C)[C@@H](CC(C)C)C(=O)N1CCC[C@H]1C(=O)N[C@@H](CCC(N)=O)C(=O)O (X1-I[NMeL]PQ-OH)
GI50 [28]: > 12 µM | GI50 [29]: > 12 µM | GI50 [30]: > 12 µM | GI50 [31]: > 12 µM

Cn1c(Br)ccc1C(=O)NC[C@H]1CC2N=C(N)NC2[C@@H](c2c[nH]c(N)n2)[C@@H]1CNC(=O)c1cc(Br)c[nH]1 (stereo partly drawn)
IC50 [6]: 18 µM

NC1=N[C@]23[C@H](N1)c1[nH]c(Br)c(Br)c1C(=O)N2C[C@H](O)[C@H]3O
IC50 [20]: 78.4 µM

NC1=NC2C[C@H](CNC(=O)c3cc(Br)c[nH]3)[C@@H](CNC(=O)c3cc(Br)c[nH]3)[C@H](c3nc(N)c[nH]3)C2N1 (stereo partly drawn)
IC50 [32]: 2.2 µM | IC50 [33]: 19.2 µM

Cn1cc(Br)cc1C(=O)NC[C@H]1CC2N=C(N)NC2[C@@H](c2c[nH]c(N)n2)[C@@H]1CNC(=O)c1cc(Br)cn1C (stereo partly drawn)
IC50 [6]: 18 µM
